Patent US20030166601A1, “Novel colloid synthetic vectors for gene therapy” (priority 1999, published 2003)

Test system: CD-1 mice
Assay: Luciferase expression in organs after intravenous injection of pCILuc complexes
Format: in vivo
Settings: for Luciferase RLU/20 μl lysate heart / Luciferase RLU/20 μl lysate kidney / Luciferase RLU/20 μl lysate liver / Luciferase RLU/20 μl lysate lung / Luciferase RLU/20 μl lysate spleen: 40 μg pCILuc i.v., 5 h; for Luciferase activity heart / Luciferase activity kidney / Luciferase activity liver / Luciferase activity lung / Luciferase activity spleen: Table 5
Procedure: Substituted aminoethanols (cationic compounds) were prepared as described in Examples 1-34. Their gene delivery ability was studied in vivo by intravenous injection (Table 1 and 2) using a standard method. The preparations were administered via tail vein injection to mice and gene expression determined after 5 hours. Female CD-1 mice, 13-15 g, were purchased from Charles River Inc. Forty microgram of pCILuc complexed with GC lipids or GC lipid:Chol dispersion as indicated weight ratios. After 5 h, mice were sacrificed and organs were collected. Organs were homogenized in 0.5 ml of lysis buffer and 20 μl of supernatant was used for luciferase assay. Luciferase activity was represented as a mean of relative light unit (RLU) of four mice. The lipids were either used alone or combined with cholesterol and complexed with a luciferase reporter gene plasmid by a standard procedure at a range of weight and charge ratios. For the in vivo screen, 40 μg of pCILuc was complexed with the formulation and injected into the mice.
All compounds were evaluated for in vivo activity. Two critical factors were examined, formulation with or without cholesterol and the ratio of cationic lipid to DNA. Cholesterol was tested at 1:1 mole ratio of lipid:chol. The studies were performed with a dose of 40 μg of pCILuc complexed with cationic lipid or lipid: Chol (1:1 mole ratio) injected i.v. into CD-1 mice and then luciferase activity in different organs determined 5 h later. The first evaluation included all of 14 GC-lipids at weight ratios of 2 and 10 (GC lipid to DNA). It was performed by four separated experiments. Each time cationic liposome DOTAP:Chol was used as a standard control.
Measurements were repeated with lipids GC-030, GC-034 and GC-029 at wider weight ratios than the first experiment. Luciferase activity is represented as a mean of relative light unit (RLU) of four mice. WR means weight ratio of GC lipids to DNA. The transfection activity was represented by luciferase activity RLU/organ. […] The transfection activity increased with the increased weight ratio (GC lipids to DNA). Inclusion of cholesterol can change the biodistribution of gene expression in the different organs examined. […] However this function of cholesterol was not seen with GC-034.

CCCCCCCCCCCCCCCCCC(CCCCCCCCCCCCCCCCC)NC(=O)CNC(=O)CNC(=O)[C@H](CCCNCCCN)NCCCN.O=C(O)C(F)(F)F.O=C(O)C(F)(F)F.O=C(O)C(F)(F)F.O=C(O)C(F)(F)F [GC-038] was tested, and the “Luciferase RLU/20 μl lysate heart” value (WR 2) was 101 RLU/20 μl lysate, the “Luciferase RLU/20 μl lysate kidney” value (WR 2) was 60 RLU/20 μl lysate and the “Luciferase RLU/20 μl lysate liver” value (WR 2) was 59 RLU/20 μl lysate. The “Luciferase RLU/20 μl lysate lung” value (WR 2) was 142 RLU/20 μl lysate, the “Luciferase RLU/20 μl lysate heart” value (WR 10) was 57 RLU/20 μl lysate and the “Luciferase RLU/20 μl lysate kidney” value (WR 10) was 58 RLU/20 μl lysate. For the same compound, the “Luciferase RLU/20 μl lysate liver” value (WR 10) was 93 RLU/20 μl lysate, the “Luciferase RLU/20 μl lysate lung” value (WR 10) was 63 RLU/20 μl lysate and the “Luciferase RLU/20 μl lysate spleen” value (WR 10, spleen) was 160 RLU/20 μl lysate. The “Luciferase RLU/20 μl lysate spleen” value (WR (lipid to DNA) 2, spleen) was 61 RLU/20 μl lysate.

With CCCCCCCCCCCCCCCCCCN(CCCCCCCCCCCCCCCCCC)C(=O)[C@H](CCC(=O)NCCN(CCNC(=O)CC[C@H](NC(=O)[C@H](CCCNCCCN)NCCCN)C(=O)N(CCCCCCCCCCCCCCCCCC)CCCCCCCCCCCCCCCCCC)CCNC(=O)CC[C@H](NC(=O)[C@H](CCCNCCCN)NCCCN)C(=O)N(CCCCCCCCCCCCCCCCCC)CCCCCCCCCCCCCCCCCC)NC(=O)[C@H](CCCNCCCN)NCCCN.O=C(O)C(F)(F)F.O=C(O)C(F)(F)F.O=C(O)C(F)(F)F.O=C(O)C(F)(F)F.O=C(O)C(F)(F)F.O=C(O)C(F)(F)F.O=C(O)C(F)(F)F.O=C(O)C(F)(F)F.O=C(O)C(F)(F)F.O=C(O)C(F)(F)F.O=C(O)C(F)(F)F.O=C(O)C(F)(F)F.O=C(O)C(F)(F)F [GC-071] the “Luciferase RLU/20 μl lysate heart” value (WR 2) was 60 RLU/20 μl lysate, the “Luciferase RLU/20 μl lysate kidney” value (WR 2) was 58 RLU/20 μl lysate and the “Luciferase RLU/20 μl lysate liver” value (WR 2) was 59 RLU/20 μl lysate. The “Luciferase RLU/20 μl lysate lung” value (WR 2) was 56 RLU/20 μl lysate, the “Luciferase RLU/20 μl lysate heart” value (WR 10) was 61 RLU/20 μl lysate and the “Luciferase RLU/20 μl lysate kidney” value (WR 10) was 67 RLU/20 μl lysate. For the same compound, the “Luciferase RLU/20 μl lysate liver” value (WR 10) was 531 RLU/20 μl lysate, the “Luciferase RLU/20 μl lysate lung” value (WR 10) was 73 RLU/20 μl lysate and the “Luciferase RLU/20 μl lysate spleen” value (WR 10, spleen) was 286 RLU/20 μl lysate. For the same compound, the “Luciferase RLU/20 μl lysate spleen” value (WR (lipid to DNA) 2, spleen) was 61 RLU/20 μl lysate.

CCCCCCCCCCCCCCCCCC(CCCCCCCCCCCCCCCCC)OC(=O)NCCNC(=O)[C@H](CCCNCCCN)NCCCN.O=C(O)C(F)(F)F.O=C(O)C(F)(F)F.O=C(O)C(F)(F)F.O=C(O)C(F)(F)F [GC-029] was tested, and the “Luciferase RLU/20 μl lysate heart” value (WR 2) was 42 RLU/20 μl lysate, the Luciferase activity heart (WR 2) was 933 RLU/organ and the “Luciferase RLU/20 μl lysate kidney” value (WR 2) was 34 RLU/20 μl lysate. The Luciferase activity kidney (WR 2) was 1,000 RLU/organ, the “Luciferase RLU/20 μl lysate liver” value (WR 2) was 31 RLU/20 μl lysate and the Luciferase activity liver (WR 2) was 825 RLU/organ. The “Luciferase RLU/20 μl lysate lung” value (WR 2) was 41 RLU/20 μl lysate, the Luciferase activity lung (WR 2) was 967 RLU/organ and the Luciferase activity spleen (WR 2, spleen) was 908 RLU/organ. The “Luciferase RLU/20 μl lysate heart” value (WR 10) was 34 RLU/20 μl lysate, the Luciferase activity heart (WR 10) was 858 RLU/organ and the “Luciferase RLU/20 μl lysate kidney” value (WR 10) was 42 RLU/20 μl lysate. For the same compound, the Luciferase activity kidney (WR 10) was 808 RLU/organ, the “Luciferase RLU/20 μl lysate liver” value (WR 10) was 65 RLU/20 μl lysate and the Luciferase activity liver (WR 10) was 1,408 RLU/organ. For the same compound, the “Luciferase RLU/20 μl lysate lung” value (WR 10) was 72 RLU/20 μl lysate, the Luciferase activity lung (WR 10) was 1,017 RLU/organ and the “Luciferase RLU/20 μl lysate spleen” value (WR 10, spleen) was 196 RLU/20 μl lysate. For the same compound, the Luciferase activity spleen (WR 10, spleen) was 1,992 RLU/organ and the “Luciferase RLU/20 μl lysate spleen” value (WR (lipid to DNA) 2, spleen) was 31 RLU/20 μl lysate.

In the case of CCCCCCCCCCCCCCCCCCN(CCCCCCCCCCCCCCCCCC)C(=O)C(CSSCC(NC(=O)C(CCCNCCCN)NCCCN)C(=O)N(CCCCCCCCCCCCCCCCCC)CCCCCCCCCCCCCCCCCC)NC(=O)C(CCCNCCCN)NCCCN.O=C(O)C(F)(F)F.O=C(O)C(F)(F)F.O=C(O)C(F)(F)F.O=C(O)C(F)(F)F.O=C(O)C(F)(F)F.O=C(O)C(F)(F)F.O=C(O)C(F)(F)F.O=C(O)C(F)(F)F (stereo not shown) [GC-026], the “Luciferase RLU/20 μl lysate heart” value (WR 2) is reported as 42 RLU/20 μl lysate, the “Luciferase RLU/20 μl lysate kidney” value (WR 2) is reported as 41 RLU/20 μl lysate and the “Luciferase RLU/20 μl lysate liver” value (WR 2) is reported as 39 RLU/20 μl lysate. The “Luciferase RLU/20 μl lysate lung” value (WR 2) was 40 RLU/20 μl lysate, the “Luciferase RLU/20 μl lysate heart” value (WR 10) was 0 RLU/20 μl lysate and the “Luciferase RLU/20 μl lysate kidney” value (WR 10) was 0 RLU/20 μl lysate. For the same compound, the “Luciferase RLU/20 μl lysate liver” value (WR 10) was 0 RLU/20 μl lysate, the “Luciferase RLU/20 μl lysate lung” value (WR 10) was 0 RLU/20 μl lysate and the “Luciferase RLU/20 μl lysate spleen” value (WR 10, spleen) was 0 RLU/20 μl lysate. The “Luciferase RLU/20 μl lysate spleen” value (WR (lipid to DNA) 2, spleen) was 40 RLU/20 μl lysate.

In the case of CCCCCCCCCCCCCCCCCC(CCCCCCCCCCCCCCCCC)OC(=O)NCCNC(=O)[C@@H](N)CCCN.O=C(O)C(F)(F)F.O=C(O)C(F)(F)F [GC-030], the Luciferase activity heart (WR 1) is reported as 1,675 RLU/organ, the Luciferase activity kidney (WR 1) is reported as 1,392 RLU/organ and the Luciferase activity liver (WR 1) is reported as 3,642 RLU/organ. For the same compound, the Luciferase activity lung (WR 1) was 3,308 RLU/organ, the Luciferase activity spleen (WR 1, spleen) was 23,308 RLU/organ and the “Luciferase RLU/20 μl lysate heart” value (WR 2) was 48 RLU/20 μl lysate. The Luciferase activity heart (WR 2) was 1,367 RLU/organ, the “Luciferase RLU/20 μl lysate kidney” value (WR 2) was 51 RLU/20 μl lysate and the Luciferase activity kidney (WR 2) was 1,458 RLU/organ. For the same compound, the “Luciferase RLU/20 μl lysate liver” value (WR 2) was 70 RLU/20 μl lysate, the Luciferase activity liver (WR 2) was 3,417 RLU/organ and the “Luciferase RLU/20 μl lysate lung” value (WR 2) was 88 RLU/20 μl lysate. The Luciferase activity lung (WR 2) was 1,600 RLU/organ, the Luciferase activity spleen (WR 2, spleen) was 73,442 RLU/organ and the Luciferase activity heart (WR 6) was 817 RLU/organ. For the same compound, the Luciferase activity kidney (WR 6) was 792 RLU/organ, the Luciferase activity liver (WR 6) was 1,550 RLU/organ and the Luciferase activity lung (WR 6) was 8,808 RLU/organ. For the same compound, the Luciferase activity spleen (WR 6, spleen) was 38,058 RLU/organ, the “Luciferase RLU/20 μl lysate heart” value (WR 10) was 67 RLU/20 μl lysate and the Luciferase activity heart (WR 10) was 3,450 RLU/organ. The “Luciferase RLU/20 μl lysate kidney” value (WR 10) was 105 RLU/20 μl lysate, the Luciferase activity kidney (WR 10) was 1,367 RLU/organ and the “Luciferase RLU/20 μl lysate liver” value (WR 10) was 1,093 RLU/20 μl lysate. The Luciferase activity liver (WR 10) was 114,425 RLU/organ, the “Luciferase RLU/20 μl lysate lung” value (WR 10) was 1,396 RLU/20 μl lysate and the Luciferase activity lung (WR 10) was 35,117 RLU/organ. For the same compound, the “Luciferase RLU/20 μl lysate spleen” value (WR 10, spleen) was 5,305 RLU/20 μl lysate, the Luciferase activity spleen (WR 10, spleen) was 446,650 RLU/organ and the Luciferase activity heart (WR 20) was 4,783 RLU/organ. For the same compound, the Luciferase activity kidney (WR 20) was 17,583 RLU/organ, the Luciferase activity liver (WR 20) was 1,003,125 RLU/organ and the Luciferase activity lung (WR 20) was 689,475 RLU/organ. For the same compound, the Luciferase activity spleen (WR 20, spleen) was 2,479,217 RLU/organ, the “Luciferase RLU/20 μl lysate spleen” value (WR (lipid to DNA) 2, spleen) was 3,692 RLU/20 μl lysate and the “luciferase activity in spleen relative to DOTAP:Chol standard” value (weight ratio 20, spleen) was 36 fold.

With CCCCCCCCCCCCCCCCCCN(CCCCCCCCCCCCCCCCCC)C(=O)CNC(=O)[C@H](CCCN(CCCN)CCCN)N(CCCN)CCCN.O=C(O)C(F)(F)F.O=C(O)C(F)(F)F.O=C(O)C(F)(F)F.O=C(O)C(F)(F)F.O=C(O)C(F)(F)F.O=C(O)C(F)(F)F [GC-016] the “Luciferase RLU/20 μl lysate heart” value (WR 2) was 44 RLU/20 μl lysate, the “Luciferase RLU/20 μl lysate kidney” value (WR 2) was 41 RLU/20 μl lysate and the “Luciferase RLU/20 μl lysate liver” value (WR 2) was 38 RLU/20 μl lysate. The “Luciferase RLU/20 μl lysate lung” value (WR 2) was 45 RLU/20 μl lysate, the “Luciferase RLU/20 μl lysate heart” value (WR 10) was 40 RLU/20 μl lysate and the “Luciferase RLU/20 μl lysate kidney” value (WR 10) was 40 RLU/20 μl lysate. The “Luciferase RLU/20 μl lysate liver” value (WR 10) was 95 RLU/20 μl lysate, the “Luciferase RLU/20 μl lysate lung” value (WR 10) was 67 RLU/20 μl lysate and the “Luciferase RLU/20 μl lysate spleen” value (WR 10, spleen) was 230 RLU/20 μl lysate. For the same compound, the “Luciferase RLU/20 μl lysate spleen” value (WR (lipid to DNA) 2, spleen) was 40 RLU/20 μl lysate.

For CC(C)CCC[C@@H](C)[C@H]1CC[C@H]2[C@@H]3CC=C4C[C@@H](OC(=O)NCCNC(=O)[C@@H](N)CCCN)CC[C@]4(C)[C@H]3CC[C@]12C [GC-003], the “Luciferase RLU/20 μl lysate heart” value (WR 2) was 37 RLU/20 μl lysate, the “Luciferase RLU/20 μl lysate kidney” value (WR 2) was 38 RLU/20 μl lysate and the “Luciferase RLU/20 μl lysate liver” value (WR 2) was 33 RLU/20 μl lysate. The “Luciferase RLU/20 μl lysate lung” value (WR 2) was 37 RLU/20 μl lysate, the “Luciferase RLU/20 μl lysate heart” value (WR 10) was 39 RLU/20 μl lysate and the “Luciferase RLU/20 μl lysate kidney” value (WR 10) was 40 RLU/20 μl lysate. For the same compound, the “Luciferase RLU/20 μl lysate liver” value (WR 10) was 73 RLU/20 μl lysate, the “Luciferase RLU/20 μl lysate lung” value (WR 10) was 69 RLU/20 μl lysate and the “Luciferase RLU/20 μl lysate spleen” value (WR 10, spleen) was 65 RLU/20 μl lysate. The “Luciferase RLU/20 μl lysate spleen” value (WR (lipid to DNA) 2, spleen) was 36 RLU/20 μl lysate.
